Data reported in patent publication US20050256301A1 (The University of Queensland, priority 1998, published 2005).
Bridge positions count the residues as written; N and C are the ends. Ends that are not written are not given here. Peptide text beside a SMILES is read from it.

Tests used:
[1] = target: endoproteinase Glu-C (Endo Glu-C) (Staphylococcus aureus, UniProt P0C1U8); details: 24 h, pH 8
[2] = system: bovine adrenal chromaffin cells; assay type: cell-based
in vitro = details: human, plasma

endoproteinase Glu-C (Endo Glu-C), sequence (P0C1U8 69-336 limits assumed): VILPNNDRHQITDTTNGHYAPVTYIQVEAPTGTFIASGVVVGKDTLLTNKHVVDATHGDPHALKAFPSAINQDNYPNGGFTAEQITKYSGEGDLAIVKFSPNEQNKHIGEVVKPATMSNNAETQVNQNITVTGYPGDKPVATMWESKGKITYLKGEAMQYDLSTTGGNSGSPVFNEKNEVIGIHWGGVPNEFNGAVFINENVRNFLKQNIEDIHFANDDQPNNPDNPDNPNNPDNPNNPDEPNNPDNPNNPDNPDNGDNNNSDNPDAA

Compound	intact peptide remaining with Endo Glu-C [1]	inhibition of nicotine-evoked catecholamine release, activity relative to linear MII [2]	remaining at 24 h (in vitro) [%]
CC(C)C[C@@H]1NC(=O)[C@H](CC(N)=O)NC(=O)[C@H](CO)NC(=O)[C@H](Cc2c[nH]cn2)NC(=O)[C@H](CCC(=O)O)NC(=O)[C@H](CC(C)C)NC(=O)[C@H](Cc2c[nH]cn2)NC(=O)[C@@H]2CSSC[C@@H]3NC(=O)CNC(=O)CNC(=O)CNC(=O)[C@H](C)NC(=O)[C@H](C)NC(=O)CNC(=O)CNC(=O)[C@H](CSSC[C@H](NC3=O)C(=O)N[C@@H](CO)C(=O)N[C@@H](CC(N)=O)C(=O)N3CCC[C@H]3C(=O)N[C@@H](C(C)C)C(=O)N2)NC1=O [cMII-6] (cyclo(AAGGGCCSNPVCHLEHSNLCGG); disulfide 6-12, 7-20)	remains entirely intact	comparable to linear MII	~90
CC(C)C[C@@H]1NC(=O)[C@H](CC(N)=O)NC(=O)[C@H](CO)NC(=O)[C@H](Cc2c[nH]cn2)NC(=O)[C@H](CCC(=O)O)NC(=O)[C@H](CC(C)C)NC(=O)[C@H](Cc2c[nH]cn2)NC(=O)[C@@H]2CSSC[C@@H]3NC(=O)CNC(=O)CNC(=O)[C@H](C)NC(=O)[C@H](C)NC(=O)CNC(=O)[C@H](C)NC(=O)CNC(=O)CNC(=O)[C@H](CSSC[C@H](NC3=O)C(=O)N[C@@H](CO)C(=O)N[C@@H](CC(N)=O)C(=O)N3CCC[C@H]3C(=O)N[C@@H](C(C)C)C(=O)N2)NC1=O [cMII-7, Gly Cys Cys Ser Asn Pro Val Cys His Leu GIu His Ser Asn Leu Cys Gly Gly Ala Gly Ala Ala Gly] (cyclo(AAGGCCSNPVCHLEHSNLCGGAG); disulfide 5-11, 6-19)	–	comparable to linear MII	~90
Gly Cys Cys Ser Asn Pro Val Cys His Leu Glu His Ser Asn Leu Cys Gly Gly Ala Ala Gly (GCCSNPVCHLEHSNLCGGAAG; also: cyclic, ring type and places not given here) [cMII-5, cyclic MII with five residue linker GGAAG]	–	comparable to linear MII	–
